As usually defined, the IC50 is the point on the concentration scale where inhibition reaches its midpoint. Read a high IC50 as lower potency.

No end group written: not given here.

Among the targets are HLA-A11 (A*1101) (Homo sapiens, UniProt P04439, A114D/D185E/E176A/F33Y/L180Q/S129P/T187R); A31 (A*3101) (Homo sapiens, UniProt P04439, A270S/D185E/E176V/E277Q/F33T/G231S/G80R/H175R/I121M/I218V/I322F/K168Q/L300P/L318F/M331R/P217A/Q94H/R138Q/T323A/T345S/T97I/V358M); A*3301 (Homo sapiens, UniProt P04439, A270S/D185E/E176V/E277Q/E87N/F33T/G231S/H175R/I121M/I218V/I322F/K168Q/K210R/L300P/L318F/M331R/P217A/Q86R/Q94H/R138Q/T323A/T345S/T97I/V358M/Y195H); A*6801 (Homo sapiens, UniProt P04439, A269V/D185E/E176V/E277Q/E87N/F33Y/G231S/I121M/I166T/I218V/L180W/L300P/L318F/N151K/P208A/P217A/Q86R/R169H/T345S).

Common to all, as to assay: biochemical
Holding throughout (assay type): binding

A further test addresses HLA-A3.2 (A*0301) (Homo sapiens, UniProt P04439). To be noted: for A*0301 binding: Table 11, binding value, no unit.

Consider 34.0050 (RVCACPGR) [Peptide 34.0050], for which, in the test with HLA-A11 (A*1101), the “A*1101 binding” value was found to be 0.0490. Further, in the test with HLA-A3.2 (A*0301), the “A*0301 binding” value worked out at 0.3500.
For 34.0171 (SSBMGGMNK) [Peptide 34.0171], the “A*1101 binding” value with HLA-A11 (A*1101) stood at 1.1000. In addition, in the test with HLA-A3.2 (A*0301), the “A*0301 binding” value is recorded as 0.5440.
As to 34.0232 (RVCACPGRDK) [Peptide 34.0232], the “A*1101 binding” value with HLA-A11 (A*1101) came to 0.0250. The “A*0301 binding” value in the test with HLA-A3.2 (A*0301) is 0.0190.
For 34.0323 (RVCACPGRDRR) [Peptide 34.0323], the “A*1101 binding” value with HLA-A11 (A*1101) is on record as 0.0290. The “A*0301 binding” value with HLA-A3.2 (A*0301) was determined as 0.0290.
Consider AFADLTVVYR [Peptide 78.0058], for which the half-inhibitory concentration (IC50) against A31 (A*3101) was 140 nM; against HLA-A3.2 (A*0301), greater than 20000 nM; against A*3301, 249 nM; on A*6801, 39 nM.
Regarding AFKDLFVVYK [Peptide 88.0024], the IC50 was 32 nM against A31 (A*3101), 3260 nM on HLA-A3.2 (A*0301), 93 nM at A*3301 and 576 nM against A*6801.
For AFTDLTIVYR [Peptide 78.0052], the 50% inhibitory concentration (IC50) is 810 nM against A31 (A*3101), greater than 20000 nM at HLA-A3.2 (A*0301), 817 nM against A*3301 and 210 nM on A*6801.
For AILGHIVSPR [Peptide 9017.0225] the same measures were 4.6 nM, 14 nM, 74 nM and 92 nM.
As for DSNAQAFLK [Peptide 88.0379], the half-maximal inhibitory concentration (IC50) against A31 (A*3101) was greater than 20000 nM; against HLA-A3.2 (A*0301), greater than 20000 nM; against A*3301 it was 20 nM; against A*6801, 39 nM.
Consider EVHIPLGDAR [Peptide 9017.0217], for which the 50% inhibitory concentration (IC50) came out at 9920 nM against A31 (A*3101), 9390 nM at HLA-A3.2 (A*0301) and 9.5 nM against A*6801.
Turning to F119.01 (MSLQRQFLR) [Peptide F119.01], the “A*1101 binding” value with HLA-A11 (A*1101) came out at 0.7200. Besides, the “A*0301 binding” value with HLA-A3.2 (A*0301) is given as 0.2000.
For F119.02 (LLGPGRPYR) [Peptide F119.02] the same measures were 0.0091 and 0.0190.
In the case of GQGVSIEWRK [Peptide 9017.0219], the 50% inhibitory concentration (IC50) against A31 (A*3101) is 8010 nM; on HLA-A3.2 (A*0301), 15000 nM; at A*3301, greater than 20000 nM; against A*6801, 2210 nM.
Take GVRRATTSTK [Peptide 88.0210]: the 50% inhibitory concentration (IC50) is 3630 nM on A31 (A*3101), 6.1 nM at HLA-A3.2 (A*0301), greater than 20000 nM on A*3301 and 18300 nM against A*6801.
Consider ILTAFNSSHK [Peptide 1589.03], for which the IC50 at HLA-A3.2 (A*0301) is 12 nM; against A*3301 it was greater than 20000 nM; against A*6801, 6390 nM.
As to IMCLRFLSK [Peptide 1571.12], the half-maximal inhibitory concentration (IC50) on A31 (A*3101) is 2300 nM; against HLA-A3.2 (A*0301), 11 nM; on A*3301 it was 2620 nM; against A*6801 it was 12900 nM.
On to KLFLKGVPKK [Peptide 1587.40], for which the 50% inhibitory concentration (IC50) was 1040 nM at A31 (A*3101), 16 nM against HLA-A3.2 (A*0301), greater than 20000 nM on A*3301 and greater than 20000 nM against A*6801.
Take KMFCQLAR [Peptide 1556.53]: the IC50 is 35 nM at A31 (A*3101), 22 nM at HLA-A3.2 (A*0301) and 249 nM on A*6801.
With KQLQHTPSPY [Peptide 88.0204], the IC50 was greater than 20000 nM on A31 (A*3101), 117 nM against HLA-A3.2 (A*0301), greater than 20000 nM at A*3301 and greater than 20000 nM at A*6801.
Consider KTLLQQYCLY [Peptide 88.0130], for which the 50% inhibitory concentration (IC50) at A31 (A*3101) was determined as 2920 nM; on HLA-A3.2 (A*0301), 206 nM; at A*3301, 14400 nM; on A*6801, 7030 nM.
For LLCGPANTGK [Peptide 88.0195] the same measures were 3650 nM, 137 nM, greater than 20000 nM and 1900 nM.
Consider LQGLAQSRYK [Peptide 88.0201], for which the concentration for half-maximal inhibition (IC50) is 4010 nM at A31 (A*3101), 1100 nM against HLA-A3.2 (A*0301), greater than 20000 nM on A*3301 and greater than 20000 nM on A*6801.
On to LTALIKPKKR [Peptide 9017.0231], for which the IC50 on A31 (A*3101) was determined as 1300 nM; on HLA-A3.2 (A*0301) it was 6460 nM; at A*3301, 8720 nM; against A*6801, 39 nM.
For the substance LTARNVLVK [Peptide 9012.0213], the half-inhibitory concentration (IC50) at A31 (A*3101) is greater than 20000 nM; at HLA-A3.2 (A*0301), 23 nM; on A*3301, greater than 20000 nM; at A*6801 it was 52 nM.
In the case of LTKMFCQLAK [Peptide 1556.51], the IC50 was 2380 nM at A31 (A*3101), 940 nM on HLA-A3.2 (A*0301), 12600 nM against A*3301 and 173 nM against A*6801.
For LTYISTSQR [Peptide 1589.19], the IC50 worked out at 39 nM at A31 (A*3101), 14 nM at HLA-A3.2 (A*0301), 79 nM against A*3301 and 0.76 nM against A*6801.
LVKHHMYVSK [Peptide 9017.0216]: the half-inhibitory concentration (IC50) at A31 (A*3101) was 347 nM; against HLA-A3.2 (A*0301), 574 nM; at A*6801, 17 nM.
On to MLIQPPKLR [Peptide 88.0340], for which the 50% inhibitory concentration (IC50) against A31 (A*3101) was 699 nM; against HLA-A3.2 (A*0301), 16200 nM; on A*3301 it was 146 nM; on A*6801, 25 nM.
For MVVLLLVRYK [Peptide 1587.04], the IC50 against HLA-A3.2 (A*0301) amounted to 2630 nM; against A*3301 it was 4480 nM; against A*6801, 720 nM.
The like results for NTKANILYK [Peptide 88.0358] were, in that order, 2120 nM, 693 nM and 100 nM.
Consider NTNAGTDPR [Peptide 88.0372], for which the IC50 against A31 (A*3101) is 7020 nM; at HLA-A3.2 (A*0301), 1120 nM; against A*3301, 418 nM; at A*6801, 50 nM.
RAHSSHLR [Peptide 1556.71]: the IC50 at A31 (A*3101) worked out at 40 nM; at HLA-A3.2 (A*0301), 1910 nM; on A*6801, 1720 nM.
As for RFHNIAGHYR [Peptide 78.0097], the IC50 against A31 (A*3101) worked out at 11 nM; on HLA-A3.2 (A*0301), 2460 nM; at A*3301, 99 nM; at A*6801, 151 nM.
On to RFLSKISEYR [Peptide 1571.13], for which the IC50 was 14 nM against A31 (A*3101), 1800 nM against HLA-A3.2 (A*0301), 20 nM against A*3301 and 17 nM at A*6801.
Regarding RILSTCLGR [Peptide 9017.0073], the IC50 at A31 (A*3101) was 8.5 nM; against HLA-A3.2 (A*0301), 58 nM; on A*3301 it was 1450 nM; on A*6801, 1450 nM.
On to RLCDHIDYWK [Peptide 1589.11], for which the IC50 was 1630 nM on A31 (A*3101), 457 nM against HLA-A3.2 (A*0301), greater than 20000 nM against A*3301 and 17100 nM at A*6801.
On to RQQFLKTVK [Peptide 1589.33], for which the figures for the 50% inhibitory concentration (IC50) at A31 (A*3101), at HLA-A3.2 (A*0301) and on A*6801 were 45 nM, 1320 nM and greater than 20000 nM, respectively.
As for SFTDLVRNFK [Peptide 88.0143], the concentration for half-maximal inhibition (IC50) against A31 (A*3101) came to 47 nM; against HLA-A3.2 (A*0301) it was 1590 nM; against A*3301, 56 nM; against A*6801, 22 nM.
As to SLKCLRYRLK [Peptide 88.0217], the half-inhibitory concentration (IC50) on A31 (A*3101) was determined as 2690 nM; on HLA-A3.2 (A*0301), 74 nM; at A*3301, 18800 nM; on A*6801 it was 12600 nM.
Consider SQACALYWFR [Peptide 88.0192], for which the half-maximal inhibitory concentration (IC50) turned out to be 42 nM on A31 (A*3101), 4660 nM against HLA-A3.2 (A*0301) and 85 nM at A*6801.
With SQISYWQLIR [Peptide 88.0220], the concentration for half-maximal inhibition (IC50) on HLA-A3.2 (A*0301) was 2610 nM; at A*3301, greater than 20000 nM; against A*6801 it was 934 nM.
As for SQRLNACQNK [Peptide 1589.34], the IC50 on A31 (A*3101) is 5960 nM; against HLA-A3.2 (A*0301) it was 2700 nM; at A*3301, greater than 20000 nM; on A*6801, greater than 20000 nM.
With SQRLNVCQDK [Peptide 88.0205], the half-inhibitory concentration (IC50) on A31 (A*3101) is 13400 nM; at HLA-A3.2 (A*0301) it was 1870 nM; against A*3301, greater than 20000 nM; at A*6801, greater than 20000 nM.
In the case of SQWIKYRCSK [Peptide 88.0174], the half-inhibitory concentration (IC50) against A31 (A*3101) was 323 nM; against HLA-A3.2 (A*0301), 944 nM; against A*3301, 3400 nM; at A*6801, greater than 20000 nM.
Take TIVYIEYRK [Peptide 9017.0118]: the IC50 against A31 (A*3101) turned out to be 13700 nM; on HLA-A3.2 (A*0301) it was 8830 nM; at A*6801, 18 nM.
Regarding TTITVYAEPPR [Peptide 1556.07], the IC50 at A31 (A*3101) was 577 nM; on HLA-A3.2 (A*0301), greater than 20000 nM; on A*3301 it was 2550 nM; against A*6801, 20 nM.
For TVSATQIVR [Peptide 1589.26], the half-inhibitory concentration (IC50) at A31 (A*3101) turned out to be 213 nM; on HLA-A3.2 (A*0301), 2540 nM; against A*3301, 645 nM; at A*6801, 14 nM.
Turning to VLILALLRYK [Peptide 88.0144], the IC50 worked out at 266 nM at HLA-A11 (A*1101) and 52 nM at HLA-A3.2 (A*0301).
On to YLALTALIK [Peptide 9017.0097], for which the half-maximal inhibitory concentration (IC50) on A31 (A*3101) was greater than 20000 nM; against HLA-A3.2 (A*0301), 235 nM; on A*3301 it was greater than 20000 nM; at A*6801, 5900 nM.

These data come from patent US9340577B2, “HLA binding motifs and peptides and their uses” (priority 1992, dated 2016).
